The nature of the data set: Plasma pharmacokinetics of ropivacaine in sciatic nerve blockade model. It counts as in vivo, Sprague-Dawley rats. From the text:
Male Sprague-Dawley rats, approximately 400-500 g in weight, were anesthetized with 3-5% isoflurane and maintained as required. The left hind leg was shaved, cleaned twice with iodine and 70% ethanol, and a sterile drape placed over the animal to create a sterile field. An incision was made in the skin and the sciatic nerve exposed using a blunt dissection. The treatment was applied, the muscle and incision closed with sutures, and animals allowed to recover under a heat lamp. Controls were injected with vehicle only (i.e. HAMC) or ropivacaine in solution.
Blood samples were taken from the tail veins and quantified using mass-spectrometry. All extractions and mass-spectrometry was carried out by the Analytical Facility for Bioactive Molecules (The Hospital for Sick Children, Toronto, Canada).
To gain insight into the pharmacokinetics of ropivacaine released from HAMC, the sciatic nerve block procedure was performed as described. Animals were treated with ropivacaine-loaded 1.4:3 HAMC at doses of 30, 60, 90 or 120 mg/kg of particulate ropivacaine (<100 μm). Control animals received HAMC alone or ropivacaine in solution at 24 mg/kg. Each animal received approximately 400 μL of treatment. For the HAMC groups, blood was sampled by tail vein puncture at 2 h, 4 h, 6 h, 12 h, 20 h, 30 h, 48 h and 72 h. […]
All statistical analyses were performed using GraphPad Prism (GraphPad Software 6, San Diego, CA, USA). Differences among 4 groups were assessed by one-way ANOVA followed by either Dunnett's or Tukey's multiple comparisons test to identify statistical significance. […] The area under the curve (AUC) was calculated for each HAMC-ropivacaine pharmacokinetic profile, and the subsequent AUC vs HAMC-ropivacaine relationship was fit to a linear regression.
A pharmacokinetics study was performed to evaluate the systemic plasma distribution of ropivacaine when delivered either from HAMC or as bolus liquid solution. […] Blood was sampled by tail vein puncture over time, and the amount of ropivacaine was quantified by LC-MS/MS.

The mark [1] stands for this setting: Sprague-Dawley, rat, plasma, 24 mg/kg at left sciatic nerve, male rats.

Counter-ions that a name gives are not always drawn.

Our source for the plasma levels, Cmax and Tmax values is patent US12419878B2, “Sustained release local anesthetic hydrogel composition” (THE GOVERNING COUNCIL OF THE UNIVERSITY OF TORONTO, priority 2019, dated 2025).

A word on the Cmax: it is the peak of the concentration-time curve. Broadly, the Tmax is the time at which the peak concentration occurs. Turning to `CCCN1CCCC[C@H]1C(=O)Nc1c(C)cccc1C` [ropivacaine solution, ropivacaine·HCl], where the note is “24 mg/kg, by 24 h”, the plasma levels result is “negligible plasma levels”. Also, under setting [1], the maximum concentration (Cmax) amounted to 1000 ng/mL and the time to peak (Tmax) came out at 1 h.
